Laboratory results from ChEMBL document CHEMBL1201862, “PubChem BioAssay data set” (2004).
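Values below derive from 48-hour exposures of cells grown in 96-well plates, with endpoints linearly interpolated between the two concentrations bracketing the appropriate inhibition level. GI50: concentration for 50% inhibition of growth.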 Calls of active or inactive are those of the source. No stated cut-off is given here; in the data, active = GI50 up to about 1.1 µM and inactive = higher.

Tests used:
Assay in all cases: growth of human tumour cells (NCI), 48 h
U-251 = tested on: U-251
SK-MEL-5 = tested on: SK-MEL-5
SF-268 = tested on: SF-268
MOLT-4 = tested on: MOLT-4
LOX IMVI = tested on: LOX IMVI
SF-295 = tested on: SF-295
M14 = tested on: M14
HOP-62 = tested on: HOP-62
HT-29 = tested on: HT-29
HCT-116 = tested on: HCT-116
RXF 393 = tested on: RXF 393
NCI-H460 = tested on: NCI-H460
K562 = tested on: K562
M19-MEL = tested on: M19-MEL
SNB-75 = tested on: SNB-75
CCRF-CEM = tested on: CCRF-CEM
HCT-15 = tested on: HCT-15
SK-OV-3 = tested on: SK-OV-3
LXFL 529 = tested on: LXFL 529
HL-60 = tested on: HL-60
OVCAR-4 = tested on: OVCAR-4
SNB-19 = tested on: SNB-19
RXF 631 = tested on: RXF 631
NCI-H522 = tested on: NCI-H522
SNB-78 = tested on: SNB-78
SK-MEL-28 = tested on: SK-MEL-28
DMS-273 = tested on: DMS-273
UACC-257 = tested on: UACC-257
HCC 2998 = tested on: HCC 2998
NCI-H226 = tested on: NCI-H226
OVCAR-8 = tested on: OVCAR-8
HOP-92 = tested on: HOP-92
KM-20L2 = tested on: KM-20L2
SF-539 = tested on: SF-539
ACHN = tested on: ACHN
COLO 205 = tested on: COLO 205
RPMI-8226 = tested on: RPMI-8226
CAKI-1 = tested on: CAKI-1
KM12 = tested on: KM12
EKVX = tested on: EKVX
UO-31 = tested on: UO-31
Malme-3M = tested on: Malme-3M
NCI-H23 = tested on: NCI-H23
SN12C = tested on: SN12C
IGROV-1 = tested on: IGROV-1
TK-10 = tested on: TK-10
UACC-62 = tested on: UACC-62
786-0 = tested on: 786-0
A498 = tested on: A498
XF498 = tested on: XF498
HOP-18 = tested on: HOP-18
A549 = tested on: A549
DLD-1 = tested on: DLD-1
OVCAR-3 = tested on: OVCAR-3
SK-MEL-2 = tested on: SK-MEL-2
OVCAR-5 = tested on: OVCAR-5
SW-620 = tested on: SW-620

SMILES: O=S(=O)(C/C(=N\O)c1ccccc1)c1ccccc1
- GI50 (U-251): > 100 µM (inactive)
- GI50 (SK-MEL-5): > 100 µM (inactive)
- GI50 (SF-268): > 100 µM (inactive)
- GI50 (MOLT-4): > 100 µM (inactive)
- GI50 (LOX IMVI): > 100 µM (inactive)
- GI50 (SF-295): > 100 µM (inactive)
- GI50 (M14): > 100 µM (inactive)
- GI50 (HOP-62): > 100 µM (inactive)
- GI50 (HT-29): > 100 µM (inactive)
- GI50 (HCT-116): > 100 µM (inactive)
- GI50 (RXF 393): > 100 µM (inactive)
- GI50 (NCI-H460): > 100 µM (inactive)
- GI50 (K562): > 100 µM (inactive)
- GI50 (M19-MEL): > 100 µM (inactive)
- GI50 (SNB-75): > 100 µM (inactive)
- GI50 (CCRF-CEM): > 100 µM (inactive)
- GI50 (HCT-15): > 100 µM
- GI50 (SK-OV-3): > 100 µM (inactive)
- GI50 (LXFL 529): > 100 µM (inactive)
- GI50 (HL-60): > 100 µM (inactive)
- GI50 (OVCAR-4): > 100 µM (inactive)
- GI50 (SNB-19): > 100 µM (inactive)
- GI50 (RXF 631): > 100 µM (inactive)
- GI50 (NCI-H522): 57.9 µM (inactive)
- GI50 (SNB-78): > 100 µM (inactive)
- GI50 (SK-MEL-28): > 100 µM (inactive)
- GI50 (DMS-273): > 100 µM (inactive)
- GI50 (UACC-257): > 100 µM (inactive)
- GI50 (HCC 2998): > 100 µM (inactive)
- GI50 (NCI-H226): > 100 µM (inactive)
- GI50 (OVCAR-8): > 100 µM (inactive)
- GI50 (HOP-92): > 100 µM (inactive)
- GI50 (KM-20L2): > 100 µM (inactive)
- GI50 (SF-539): > 100 µM (inactive)
- GI50 (ACHN): > 100 µM (inactive)
- GI50 (COLO 205): > 100 µM (inactive)
- GI50 (RPMI-8226): > 100 µM (inactive)
- GI50 (CAKI-1): > 100 µM (inactive)
- GI50 (KM12): > 100 µM (inactive)
- GI50 (EKVX): > 100 µM (inactive)
- GI50 (UO-31): > 100 µM (inactive)
- GI50 (Malme-3M): > 100 µM (inactive)
- GI50 (NCI-H23): > 100 µM (inactive)
- GI50 (SN12C): > 100 µM (inactive)
- GI50 (IGROV-1): > 100 µM (inactive)
- GI50 (TK-10): > 100 µM (inactive)
- GI50 (UACC-62): > 100 µM (inactive)
- GI50 (786-0): > 100 µM (inactive)
- GI50 (A498): > 100 µM (inactive)
- GI50 (XF498): 59.3 µM (inactive)
- GI50 (HOP-18): > 100 µM (inactive)
- GI50 (A549): > 100 µM (inactive)
- GI50 (DLD-1): > 100 µM (inactive)
- GI50 (OVCAR-3): > 100 µM (inactive)
- GI50 (SK-MEL-2): > 100 µM (inactive)
- GI50 (OVCAR-5): > 100 µM (inactive)
- GI50 (SW-620): > 100 µM (inactive)

SMILES: Nc1ncn([C@@H]2C=C(CO)C(O)C2O)c(=O)n1 (some centres not stated)
- GI50 (U-251): > 100 µM (inactive)
- GI50 (SK-MEL-5): > 100 µM (inactive)
- GI50 (SF-268): > 100 µM (inactive)
- GI50 (MOLT-4): 56.5 µM (inactive)
- GI50 (LOX IMVI): 44.4 µM (inactive)
- GI50 (SF-295): > 100 µM (inactive)
- GI50 (M14): 60.1 µM (inactive)
- GI50 (HOP-62): 53.7 µM (inactive)
- GI50 (HT-29): 57.4 µM (inactive)
- GI50 (HCT-116): 39.2 µM (inactive)
- GI50 (NCI-H460): 28.6 µM (inactive)
- GI50 (K562): 43.6 µM (inactive)
- GI50 (M19-MEL): > 100 µM (inactive)
- GI50 (CCRF-CEM): 45.5 µM (inactive)
- GI50 (HCT-15): 60.3 µM
- GI50 (SK-OV-3): > 100 µM (inactive)
- GI50 (LXFL 529): 75 µM (inactive)
- GI50 (HL-60): 39.5 µM (inactive)
- GI50 (OVCAR-4): > 100 µM (inactive)
- GI50 (SNB-19): > 100 µM (inactive)
- GI50 (RXF 631): > 100 µM (inactive)
- GI50 (NCI-H522): > 100 µM (inactive)
- GI50 (SNB-78): 61.5 µM (inactive)
- GI50 (SK-MEL-28): > 100 µM (inactive)
- GI50 (DMS-273): > 100 µM (inactive)
- GI50 (UACC-257): > 100 µM (inactive)
- GI50 (HCC 2998): 56.2 µM (inactive)
- GI50 (NCI-H226): 95.1 µM (inactive)
- GI50 (OVCAR-8): 79.3 µM (inactive)
- GI50 (HOP-92): > 100 µM (inactive)
- GI50 (KM-20L2): 63.8 µM (inactive)
- GI50 (SF-539): > 100 µM (inactive)
- GI50 (ACHN): 51.4 µM (inactive)
- GI50 (COLO 205): 37.8 µM (inactive)
- GI50 (RPMI-8226): 37.7 µM (inactive)
- GI50 (CAKI-1): 98.4 µM (inactive)
- GI50 (KM12): 85.3 µM (inactive)
- GI50 (EKVX): > 100 µM (inactive)
- GI50 (UO-31): 50.7 µM (inactive)
- GI50 (Malme-3M): > 100 µM (inactive)
- GI50 (NCI-H23): > 100 µM (inactive)
- GI50 (SN12C): > 100 µM (inactive)
- GI50 (IGROV-1): 70.1 µM (inactive)
- GI50 (TK-10): > 100 µM (inactive)
- GI50 (UACC-62): 83.9 µM (inactive)
- GI50 (786-0): 55.5 µM (inactive)
- GI50 (A498): > 100 µM (inactive)
- GI50 (XF498): > 100 µM (inactive)
- GI50 (HOP-18): > 100 µM (inactive)
- GI50 (A549): 66.5 µM (inactive)
- GI50 (DLD-1): 58.2 µM (inactive)
- GI50 (OVCAR-3): > 100 µM (inactive)
- GI50 (SK-MEL-2): > 100 µM (inactive)
- GI50 (OVCAR-5): > 100 µM (inactive)
- GI50 (SW-620): 69.8 µM (inactive)
